Patent publication EP4617273A1, “FUSED TRICYCLIC PARP1 INHIBITOR, PREPARATION METHOD THEREFOR, AND USE THEREOF” (Haihe Biopharma Co., Ltd., priority 2022, dated 2024)

What was measured:
[1] = test system: MDA-MB-436 cells; assay: MDA-MB-436 cell proliferation inhibition test (CellTiter-Glo, 7 days); assay type: cell-based; settings: Homo sapiens, MDA-MB-436, 168 h, 7 days incubation
Description: Human breast cancer MDA-MB-436 (purchased from ATCC) cells were cultured in DMEM medium (supplemented with 10% fetal bovine serum with 1% dual antibody) at 37 °C, 5% CO2. The cells were taken from the logarithmic growth phase, digested and prepare cell suspension witha certain concentration, which was inoculated into 96-well plates. 100 µL of cell suspension was added to each well of the 96-well plates, incubated overnight, then different concentrations of compounds were added, and the cells were incubated in the cell culture incubator for 7 days. At the end of incubation, 50 µL of CellTiter-Glo reagent was added to each well, mixed with a microplate and shaked for 2 min, and left at rt for 60 min, then the fluorescence value was read with a Spark® multimode microplate reader. […] Table 2. proliferation inhibitory activity of compounds of the present invention on MDA-MB-436 cells

[2] = target: T1, Recombinant human PARP1 protein (Homo sapiens, UniProt P09874); assay: biochemical
Description: (§1) The PARP1/2 inhibitory activity of the compounds of the present invention was tested in an assay using Histone as a substrate.
(§2) Aim of the assay: to test the PARP1/2 enzymatic activity inhibition IC50 values of the compounds of the present application according to established experimental methods.
(§3) 1. Compound Configuration: Dilute the compounds with DMSO in 384-well plates to a 1000-fold final concentration and set aside.
(§4) 1) Dilute Histone with PBS, add 25uL of Histone mixture to each well and incubate for 2 h. 2) Wash each well 5 times using PBST solution. Remove the solution with a clean paper towel.3) Add 75 uL of Blocking buffer to each well and incubate for 1 h at rt. 4) Wash each well 5 times using PBST solution. Remove the solution with a clean paper towel.
(§5) 2) Use 1× Assay buffer to prepare 2.5× final concentration of PARP1 solution. 3) Add 10 uL of enzyme solution to the compound wells and Max control wells; add 10 uL of 1× Assay buffer. […] 6) Centrifuge at 1000 rpm for 60 seconds and incubate at rt for 2 h. 7) Each well was washed 5 times with PBST solution. Remove the solution with a clean paper towel.
(§6) 1) Prepare Streptavidin-HRP solution, add 25 µL to each well, centrifuge at 1000 rpm for 60 sec, and incubate at rt for 30 min. 2) Wash each well 5 times using PBST solution. Remove the solution with a clean paper towel. 3) Add 50 µL of ELISA Chemiluminescent Substrate per well. 4) Centrifuge at 1000 rpm for 60 seconds and read with EnSight after 5 min.
(§7) The inhibition rate was calculated using the following formula: % inhibition = (max signal - compound signal) / (max signal - min signal) × 100, where 'min signal' is the mean value of negative control wells and 'max signal' is the mean value of positive control wells.
(§8) Fitting the quantitative effect curve: using the log value of the concentration as the X-axis and the percentage inhibition as the Y-axis; using the log(inhibitor) vs. response-variable slope method in software GraphPadPrism5 to fit the quantitative effect curve to calculate the IC50 value for the inhibition of the enzyme activity by the compounds of the present invention. The fitting formula is: Y=Bottom+ (Top-Bottom)/(1+10^((logIC50-X)*HillSlope)).

[3] = target: T2, recombinant human PARP2 protein (Homo sapiens, UniProt Q9UGN5); assay: PARP2 enzymatic inhibitory activity, histone substrate, chemiluminescent ELISA; assay type: biochemical; settings: histone substrate, 500 µM NAD+ not added; read-out: PARP2 IC50
T2 construct: purchased BPS 80502
Description: The PARP2 inhibitory activity assay was performed as in Experimental Method 1, except that PARP1 solution in step 2 of "3. Ribosylation reaction" was replaced with recombinant human PARP2 solution, and 500 µM NAD+ was not added in step 5 of the ribosylation reaction. Table 1. IC50 for inhibition of PARP1/2 enzymes by compounds of the present invention

[4] = target: T1, Recombinant human PARP1 protein; assay: PARP1 enzymatic inhibitory activity, histone substrate, chemiluminescent ELISA; settings: PARP2 IC50 over PARP1 IC50
Description: as §1, §2, §3, §4, §5, §6, §7, §8

T1 sequence (P09874 whole entry): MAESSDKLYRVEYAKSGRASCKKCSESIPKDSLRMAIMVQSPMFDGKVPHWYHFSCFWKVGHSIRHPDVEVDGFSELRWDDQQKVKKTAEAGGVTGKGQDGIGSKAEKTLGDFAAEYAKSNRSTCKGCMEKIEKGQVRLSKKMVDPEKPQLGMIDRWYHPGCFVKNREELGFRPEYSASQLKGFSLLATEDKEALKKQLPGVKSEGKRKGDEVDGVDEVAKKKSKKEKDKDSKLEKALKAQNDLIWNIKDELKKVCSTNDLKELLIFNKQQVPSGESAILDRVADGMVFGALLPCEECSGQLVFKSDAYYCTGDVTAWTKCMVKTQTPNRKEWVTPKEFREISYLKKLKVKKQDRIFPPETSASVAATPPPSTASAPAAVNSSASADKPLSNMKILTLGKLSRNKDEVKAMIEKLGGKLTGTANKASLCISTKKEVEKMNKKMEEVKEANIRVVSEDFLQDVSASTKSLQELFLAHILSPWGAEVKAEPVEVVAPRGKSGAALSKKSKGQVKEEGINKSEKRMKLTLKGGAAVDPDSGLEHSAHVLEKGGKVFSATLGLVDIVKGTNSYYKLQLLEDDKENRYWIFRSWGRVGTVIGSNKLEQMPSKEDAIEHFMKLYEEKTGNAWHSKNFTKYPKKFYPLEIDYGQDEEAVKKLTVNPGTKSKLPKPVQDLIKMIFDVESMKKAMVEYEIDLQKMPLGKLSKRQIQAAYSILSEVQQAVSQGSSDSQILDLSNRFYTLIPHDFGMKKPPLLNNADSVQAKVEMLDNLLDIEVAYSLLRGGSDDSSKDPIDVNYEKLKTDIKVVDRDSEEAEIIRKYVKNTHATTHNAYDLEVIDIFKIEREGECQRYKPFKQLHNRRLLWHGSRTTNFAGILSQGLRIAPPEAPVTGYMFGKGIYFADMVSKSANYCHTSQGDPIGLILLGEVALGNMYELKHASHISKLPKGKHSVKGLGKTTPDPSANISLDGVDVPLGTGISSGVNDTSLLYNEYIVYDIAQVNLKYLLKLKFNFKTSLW
T2 sequence (Q9UGN5 whole entry): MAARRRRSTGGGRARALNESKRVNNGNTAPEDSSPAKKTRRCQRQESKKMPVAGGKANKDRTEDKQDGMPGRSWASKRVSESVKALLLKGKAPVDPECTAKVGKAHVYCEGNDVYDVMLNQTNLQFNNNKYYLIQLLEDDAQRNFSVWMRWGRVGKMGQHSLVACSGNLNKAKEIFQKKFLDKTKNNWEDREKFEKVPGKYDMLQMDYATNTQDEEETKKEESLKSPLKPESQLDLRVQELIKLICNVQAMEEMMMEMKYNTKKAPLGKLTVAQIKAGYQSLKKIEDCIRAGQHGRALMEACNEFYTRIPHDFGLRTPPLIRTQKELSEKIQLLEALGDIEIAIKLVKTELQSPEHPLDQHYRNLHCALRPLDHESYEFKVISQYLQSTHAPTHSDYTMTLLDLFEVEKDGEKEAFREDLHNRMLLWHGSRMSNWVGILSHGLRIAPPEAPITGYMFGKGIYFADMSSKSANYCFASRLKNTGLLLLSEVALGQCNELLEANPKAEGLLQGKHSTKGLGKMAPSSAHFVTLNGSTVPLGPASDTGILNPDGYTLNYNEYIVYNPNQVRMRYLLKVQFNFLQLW

| Compound | IC50 [1] [nM] | IC50 [2] [nM] | IC50 [3] [nM] | PARP1/2 Fold selectivity [4] |
| --- | --- | --- | --- | --- |
| CNC(=O)c1ccc(N2CCN(Cc3ccc4c(c3)[nH]c(=O)c3cnn(C)c34)CC2)c(F)n1 [Compound 16] |  | 0.22 |  |  |
| Cc1nc(C(=O)NC2CC2)ccc1N1CCN(Cc2ccc3c(c2F)NC(=O)N2CCN=C32)CC1 [Compound 130] |  | 3.4 |  |  |
| CNC(=O)c1ccc(N2CCN(Cc3ccc4c(c3C)NC(=O)N3CCN=C43)CC2)c(F)n1 [Compound 127] |  | 7.3 |  |  |
| CNC(=O)c1ccc(N2CCN(Cc3ccc4c(c3F)NC(=O)N3CCCN=C43)CC2)c(C)n1 [Compound 140] | 12.8 | 1.5 |  |  |
| CNC(=O)c1ccc(N2CCN(Cc3ccc4c(c3F)NC(=O)N3C[C@H](C)N=C43)CC2)c(F)n1 [Compound 133] | 28.7 | 1.2 |  |  |
| CNC(=O)c1ccc(N2CCN(Cc3ccc4c(c3)[nH]c(=O)c3cn(C)nc34)CC2)c(F)n1 [Compound 101] | 9.3 | 1.7 |  |  |
| CC(c1ccc2c([nH]c(=O)c3ccnn32)c1F)N1CCN(c2ccc(F)cc2F)CC1 (centres unmarked) [Compound 99] |  | 571 |  |  |
| CNC(=O)c1ccc(N2CCN(C(C)c3ccc4c(c3)[nH]c(=O)c3cccn34)CC2)c(F)n1 (centres unmarked) [Compound 5] |  | 0.15 | 17.3 | 115.3 |
| CCNC(=O)c1ccc(N2CCN(Cc3ccc4c(c3F)NC(=O)N3CCN=C43)CC2)c(F)n1 [Compound 128] |  | 2.2 |  |  |
| CNC(=O)c1ccc(N2CCN(C(C)c3ccc4c([nH]c(=O)c5ccnn54)c3F)CC2)c(F)n1 (centres unmarked) [Compound 13] |  | 2.87 | 3150 | 1098.6 |
| CNC(=O)c1ccc(N2CCN(Cc3ccc4c([nH]c(=O)c5cscc54)c3F)CC2)c(F)n1 [Compound 80] |  | 0.85 |  |  |
| CNC(=O)c1ccc(N2CCN(Cc3ccc4c(c3F)NC(=O)N3CC[C@H](C)N=C43)CC2)c(F)n1 [Compound 142] |  | 5.6 | > 10000 | >1756 |
| CC(c1ccc2c([nH]c(=O)c3ccnn32)c1F)N1CCN(c2ccc(C#N)cn2)CC1 (centres unmarked) [Compound 98] |  | 18.4 |  |  |
| CNC(=O)c1ccc(N2CCN(Cc3cc4c(cc3Cl)C3=NCCN3C(=O)N4)CC2)c(F)n1 [Compound 135] |  | 9.6 |  |  |
| CNC(=O)c1ccc(N2CCN(Cc3ccc4c(c3F)NC(=O)N3CC(C)(C)N=C43)CC2)c(F)n1 [Compound 136] |  | 11.3 | 8870 | 785 |
| CNC(=O)c1ccc(N2CCN(Cc3ccc4c([nH]c(=O)c5sccc54)c3F)CC2)c(F)n1 [Compound 77] |  | 0.6 |  |  |
| CNC(=O)c1ccc(N2CCN(C(C)c3ccc4c(c3)[nH]c(=O)c3cnn(C)c34)CC2)c(F)n1 (centres unmarked) [Compound 15] |  | 3.6 | 313 | 86.8 |
| CNC(=O)c1ccc(N2CCN(Cc3ccc4c(c3F)NC(=O)N3CCN=C43)CC2)c(C)n1 [Compound 129] | < 1.52 |  |  |  |
| CNC(=O)c1ccc(N2CCN(C(C)c3ccc4c([nH]c(=O)c5cccn54)c3F)CC2)c(F)n1 (centres unmarked) [Compound 7] |  | 0.38 | 204 | 536.3 |
| CNC(=O)c1ccc(N2CCN(Cc3ccc4c([nH]c(=O)c5cnnn54)c3F)CC2)c(F)n1 [Compound 26] |  | 17.7 |  |  |
| CNC(=O)c1ccc(N2CCN(Cc3ccc4c(c3F)NC(=O)N3CCN=C43)CC2)c(F)n1 [Compound 123] | 27.4 | 0.8 |  |  |
| CNC(=O)c1ccc(N2CCN(C(C)c3ccc4c([nH]c(=O)c5cn(C)nc54)c3F)CC2)c(F)n1 (centres unmarked) [Compound 19] |  | 273 |  |  |
| O=C(N[C@@H]1CCOC1)c1ccc(N2CCN(Cc3ccc4c([nH]c(=O)c5ccnn54)c3F)CC2)c(F)n1 [Compound 112] |  | 14.2 |  |  |
| CNC(=O)c1ccc(N2CCN(Cc3ccc4c(c3F)NC(=O)N3CCN=C43)CC2)c(Cl)n1 [Compound 126] | 5.4 | 1.3 |  |  |
| CNC(=O)c1ccc(N2CCN(Cc3ccc4c(c3)[nH]c(=O)n3cc(C)nc43)CC2)c(F)n1 [Compound 117] |  | 0.5 |  |  |

Further lines, results first:

| IC50 [1] [nM] | IC50 [2] [nM] | IC50 [3] [nM] | PARP1/2 Fold selectivity [4] | Compound |
| --- | --- | --- | --- | --- |
| 6.4 | 0.58 |  |  | CCNC(=O)c1ccc(N2CCN(Cc3ccc4c(c3F)NC(=O)N3CC(F)(F)CN=C43)CC2)c(F)n1 [Compound 186] |
|  | 1.5 |  |  | CNC(=O)c1ccc(N2CCN(Cc3ccc4c(c3F)NC(=O)N3CCCN=C43)CC2)c(C(F)F)n1 [Compound 204] |
| 8.1 | 1.3 |  |  | CNC(=O)c1ccc(N2CCN(Cc3ccc4c(c3F)NC(=O)N3C[C@@H](C)N=C43)CC2)c(C)n1 [Compound 153] |
|  | 0.67 |  |  | CNC(=O)c1ccc(N2CCN(Cc3ccc4c(c3)NC(=O)N3C[C@@H](C)N=C43)CC2)c(Cl)n1 [Compound 189] |
|  | 1.6 |  |  | O=C(NC1CC1)c1ccc(N2CCN(Cc3ccc4c(c3F)NC(=O)N3CCCN=C43)CC2)c(Cl)n1 [Compound 202] |
|  | 2.2 |  |  | CNC(=O)c1ccc(C2CCN(Cc3ccc4c(c3F)NC(=O)N3C[C@@H](C)N=C43)CC2)c(Cl)n1 [Compound 194] |
|  | 1.13 |  |  | CCNC(=O)c1ccc(N2CCN(Cc3ccc4c(c3F)NC(=O)N3CCCN=C43)CC2)c(C)n1 [Compound 184] |
|  | 1.2 | 1550 | 1324 | C[C@@H]1CN2C(=O)Nc3c(ccc(CN4CCN(c5ccc(C(=O)NC6CC6)nc5Cl)CC4)c3F)C2=N1 [Compound 201] |
| 21.5 | 1.5 |  |  | CNC(=O)c1ccc(N2CCN(Cc3ccc4c(c3F)NC(=O)N3C[C@H](C)N=C43)CC2)c(Cl)n1 [Compound 152] |
|  | 1.46 | 893 | 611.4 | CNC(=O)c1ccc(N2CCN(Cc3ccc4c(c3F)NC(=O)N3C4=NC[C@@H]3C)CC2)c(C)n1 [Compound 155] |
| 12.4 |  |  |  | CNC(=O)c1ccc(N2CCN(Cc3ccc4c(c3F)NC(=O)N3C[C@H](F)CN=C43)CC2)c(Cl)n1 [Compound 146] |
|  | 0.95 | 514 | 541.5 | CNC(=O)c1ccc(N2CCN(C(C)c3ccc4c(c3F)NC(=O)N3CC5(CC5)N=C43)CC2)c(F)n1 (centres unmarked) [Compound 173] |
|  | 0.95 |  |  | C[C@@H]1CN2C(=O)Nc3c(ccc(CN4CCN(c5ccc(C#N)cn5)CC4)c3F)C2=N1 [Compound 187] |
| 17.5 | 1.1 |  |  | CNC(=O)c1ccc(N2CCN(Cc3ccc4c(c3F)NC(=O)N3C[C@H](C)N=C43)CC2)c(C)n1 [Compound 151] |
|  | 1.83 | 547 | 299 | O=C(NC1CC1)c1ccc(N2CCN(Cc3ccc4c(c3F)NC(=O)N3CCCN=C43)CC2)c(F)n1 [Compound 182] |
|  | 0.3 |  |  | CNC(=O)c1ccc(N2CCN(Cc3ccc4c(c3F)NC(=O)N3C[C@@H](C)N=C43)[C@H](C)C2)c(Cl)n1 [Compound 197] |

| IC50 [1] [nM] | IC50 [2] [nM] | IC50 [3] [nM] | PARP1/2 Fold selectivity [4] | Compound |
| --- | --- | --- | --- | --- |
| 8.9 | 0.6 |  |  | CNC(=O)c1ccc(N2CCN(Cc3ccc4c(c3F)NC(=O)N3C[C@H](F)CN=C43)CC2)c(C)n1 [Compound 145] |
| 9.2 | 0.36 |  |  | CCNC(=O)c1ccc(N2CCN(Cc3ccc4c(c3F)NC(=O)N3CCCN=C43)CC2)c(Cl)n1 [Compound 183] |
|  | 1.09 | 894 | 820.2 | CCNC(=O)c1ccc(N2CCN(Cc3ccc4c(c3F)NC(=O)N3C[C@@H](C)N=C43)CC2)c(Cl)n1 [Compound 185] |
|  | 1.7 |  |  | CNC(=O)c1ccc(N2CCN(Cc3ccc4c(c3F)NC(=O)N3C[C@@H](C)N=C43)CC2)cn1 [Compound 193] |
|  | 0.5 |  |  | C[C@@H]1CN2C(=O)Nc3c(ccc(CN4CCN(c5ccc(C(=O)NCC(F)F)nc5Cl)CC4)c3F)C2=N1 [Compound 198] |
|  | 40.8 |  |  | O=C1Nc2c(ccc(CN3CCN(c4ccc(F)cc4F)CC3)c2F)C2=NCCCN12 [Compound 195] |
|  | 4.6 |  |  | CNC(=O)c1ccc(N2CCN(Cc3ccc4c(c3F)NC(=O)N3CC[C@@H](C)N=C43)CC2)c(F)n1 [Compound 143] |
|  | 0.34 |  |  | CNC(=O)c1ccc(N2CCN(Cc3ccc4c(c3)NC(=O)N3C[C@@H](C)N=C43)CC2)c(C)n1 [Compound 190] |
|  | 0.7 |  |  | CCNC(=O)c1ccc(N2CCN(Cc3ccc4c(c3F)NC(=O)N3CCCN=C43)CC2)c(F)n1 [Compound 171] |
|  | 0.9 | 296 | 323 | CNC(=O)c1ccc(N2CCN(Cc3ccc4c(c3)NC(=O)N3CCCN=C43)CC2)c(Cl)n1 [Compound 191] |
|  | 0.6 |  |  | CNC(=O)c1ccc(O[C@H]2CN(Cc3ccc4c(c3F)NC(=O)N3C[C@@H](C)N=C43)[C@@H]2C)cn1 [Compound 199] |
| 5.7 | 0.7 |  |  | CCNC(=O)c1ccc(N2CCN(Cc3ccc4c(c3F)NC(=O)N3C[C@@H](C)N=C43)CC2)c(F)n1 [Compound 172] |
| 3.6 |  |  |  | CNC(=O)c1ccc(N2CCN(Cc3ccc4c(c3F)NC(=O)N3CC(F)(F)CN=C43)CC2)c(F)n1 [Compound 148] |
|  | 1.4 |  |  | CNC(=O)c1ccc(N2CCN(Cc3ccc4c(c3F)NC(=O)N3C[C@@H](C)N=C43)CC2)c(C(F)F)n1 [Compound 203] |
|  | 1 |  |  | CNC(=O)c1ccc(N2CCN(Cc3ccc4c(c3)NC(=O)N3CCCN=C43)CC2)c(C)n1 [Compound 192] |
